Article PMC7822874, “Chemoprotective antimalarials identified through quantitative high-throughput screening of Plasmodium blood and liver stage parasites” (Scientific Reports, 2021)
Read-outs that look alike come from different tables or passages of the source.

How the values were obtained:
[1] = system: P. falciparum Dd2 Cytb F123L; assay: SYBR Green ABS proliferation assay, NCGC00473217 selected clone G08; format: cell-based, Plasmodium falciparum; set-up: log AC50, mean: unit: log10(M); details: for AC50: Plasmodium falciparum; for log AC50, mean: cytochrome b mutant line
Description: (§1) As resistance selection studies implicated the parasite cytochrome bc1 complex in mediating reduced parasite susceptibility to both NCGC00473217 and NCGC00374598, we leveraged these drug-selected parasites to test for altered drug response to a panel of antimalarial compounds.
(§2) The P. falciparum parasite Dd2 line was cultured in vitro using standard conditions. […] Tissue culture flasks and assay plates were incubated at 37 °C under a gas mixture of 5% CO2, 5% O2 and 90% N2. […] Significant differences were assessed using two-sided Student’s t-tests. All HTS assays were stopped and read at 72 h. Percent response values represent relative growth as judged by SYBR Green-I fluorescence intensity values normalized to controls.
(§3) Fresh uninfected RBCs (0.5% hematocrit) were added on day 7 and media was changed every other day. […] Resistant parasites were maintained under drug media at a volume of 50 mL until a high parasitemia (> 5%) was achieved. Aliquots of the bulk resistant cultures were frozen in cryovials before cloning by limiting dilution in 96-well plates (seeded at 0.25 or 0.5 parasites/well)[70]. After 3 weeks of cloning, we screened for positive wells by flow cytometry with SYBR Green-stained cells. […] Parasites were harvested by saponin lysis at the trophozoite stage and genomic DNA was extracted using the QIAamp DNA Blood Midi Kit (Qiagen, Germantown, MD)[71].

[2] = system: P. falciparum Dd2 Cytb A122D; assay: SYBR Green ABS proliferation assay, NCGC00473217 selected clone F12; format: cell-based, Plasmodium falciparum; details: Plasmodium falciparum
Description: as §1, §2, §3

[3] = system: P. falciparum Dd2 (clone B2) asexual blood stage parasites; assay: P. falciparum Dd2 asexual blood stage SYBR Green-I 72 h proliferation assay (qHTS); format: cell-based, Plasmodium falciparum; details: Plasmodium falciparum, DD2, Dd2 parental; Hill fit, averaged from three independent replicates; top concentration 29 µM; read-out: Average AC50 (Log[M]), Dd2 (converted)
[4] = system: P. falciparum Dd2 Cytb G131S; assay: SYBR Green ABS proliferation assay, NCGC00374598 selected clone C11; format: cell-based, Plasmodium falciparum; details: Plasmodium falciparum
Description: as §1, §2, §3

[5] = system: P. falciparum Dd2 Cytb V259L; assay: SYBR Green ABS proliferation assay, NCGC00473217 selected clone F06; format: cell-based, Plasmodium falciparum; details: Plasmodium falciparum
Description: as §1, §2, §3

[6] = system: luciferase-expressing P. berghei liver stage parasites in HepG2 cells; assay: Inhibition of liver-stage development assay (ILSDA), Method 2 (WRAIR, 96-well); format: cell-based, Plasmodium berghei; details: P. berghei liver stage, Method 2, dose response
[7] = system: Plasmodium falciparum Dd2 asexual blood stage parasites; assay: microbe, parasite or virus in culture; set-up: species or system Plasmodium falciparum Dd2 in human erythrocytes; single determination (one 11-point concentration-response curve); details: Plasmodium falciparum, DD2, Erythrocyte, 72 h; read-out: AC50
[8] = system: P. berghei-ANKA-GFP-LucCON liver stage parasites in HepG2-A16-CD81EGFP cells; assay: P. berghei liver stage Pb-Luc assay, Method 1 (UCSD, 1536-well); format: cell-based, Plasmodium berghei; details: Method 1; for AC50: Plasmodium berghei
[9] = DD2, […], averaged from three independent replicates, top concentration 29 µM, read-out: Average AC50 (Log[M]), NCGC00473217 clone G08 (Cytb F123L) (converted)
[10] = DD2, […], averaged from three independent replicates, top concentration 29 µM, read-out: Average AC50 (Log[M]), NCGC00473217 clone F12 (Cytb A122D) (converted)
[11] = DD2, […], averaged from three independent replicates, top concentration 29 µM, read-out: Average AC50 (Log[M]), NCGC00374598 clone C11 (Cytb G131S) (converted)
[12] = DD2, […], averaged from three independent replicates, top concentration 29 µM, read-out: Average AC50 (Log[M]), NCGC00473217 clone F06 (Cytb V259L) (converted)
[13] = DD2, cytochrome b mutant line, fifth value triple, c15, […], read-out: log AC50, mean (converted)
[14] = DD2, cytochrome b mutant line, second value triple, c6, […], read-out: log AC50, mean (converted)
[15] = DD2, cytochrome b mutant line, fourth value triple, c12, […], read-out: log AC50, mean (converted)
[16] = DD2, cytochrome b mutant line, third value triple, c9, […], read-out: log AC50, mean (converted)

Row | Compound | AC50 [1, 9] [M] | AC50 [2, 10] [M] | AC50 [3] [M] | AC50 [4, 11] [M] | AC50 [5, 12] [M] | AC50 [1, 13] [M] | other results
1 | NS(=O)(=O)c1cc2c(cc1Cl)NC(C1CC3C=CC1C3)NS2(=O)=O (stereo not drawn) [NCGC00015288-06] | 5.64e-07 | 7.1e-07 | – | – | – | – | –
2 | N[S+](=O)([O-])c1cc2c(cc1Cl)NCN[S+]2(=O)[O-] [NCGC00015508-23] | – | 1.78e-07 | 7.1e-07 | 8.93e-07 | 5.64e-07 | – | –
3 | N[S+](=O)([O-])c1cc2c(cc1C(F)(F)F)NCN[S+]2(=O)[O-] [NCGC00016401-08] | 3.56e-06 | 3.56e-06 | – | 2.24e-05 | 3.85e-06 | – | –
4 | NS(=O)(=O)c1cc2c(cc1C(F)(F)F)NC(Cc1ccccc1)NS2(=O)=O (stereo not drawn) [NCGC00018194-08] | 8.93e-06 | – | – | 1e-08 | 1.26e-06 | – | –
5 | N[S+](=O)([O-])c1cc2c(cc1Cl)NC(C(Cl)Cl)N[S+]2(=O)[O-] (stereo not drawn) [NCGC00018302-09] | 5.02e-06 | 6.32e-07 | – | – | 1.42e-06 | – | –
6 | CN1C(CSCC(F)(F)F)Nc2cc(Cl)c(S(N)(=O)=O)cc2S1(=O)=O (stereo not drawn) [NCGC00182076-03] | – | 1e-08 | 2.82e-06 | 3.56e-06 | – | – | –
7 | CC(C)c1nc2c(c(-c3ccc(Cl)cc3)n1)CCN(C(=O)c1ccc(C(F)(F)F)cc1)CC2 [NCGC00374584-01] | – | – | – | – | – | 8.41e-06 | AC50 [4, 14]: 6.93e-06 M; AC50 [2, 15]: 7.5e-06 M; AC50 [5, 16]: 7.5e-06 M
8 | Cc1cc(CN2CCc3nc(C(C)C)nc(-c4ccc(Cl)cc4)c3CC2)no1 [NCGC00374612-01] | – | – | – | – | – | 9.79e-06 | AC50 [4, 14]: 1.55e-05 M; AC50 [2, 15]: 1.68e-05 M; AC50 [5, 16]: 1.38e-05 M
9 | COc1ccc(-c2nc(C3CC3)nc3c2CCN(Cc2ccccc2)CC3)cc1 [NCGC00374622-01] | – | – | – | – | – | 6.68e-06 | AC50 [4, 14]: 6.43e-06 M; AC50 [2, 15]: 6.93e-06 M; AC50 [5, 16]: 6.93e-06 M
10 | COc1ccc(-c2nc(C3CC3)nc3c2CCN(Cc2ccc(F)cc2)CC3)cc1 [NCGC00374624-01] | – | – | – | – | – | 9.08e-06 | AC50 [4, 14]: 8.73e-06 M; AC50 [2, 15]: 1.1e-05 M; AC50 [5, 16]: 9.79e-06 M
11 | O=c1[nH]c(N2CCOCC2)nc2c1CCN(Cc1cc(Cl)ccc1F)CC2 [NCGC00440651-01] | – | – | – | – | – | 2.16e-06 | log AC50, mean ([1]; fifth value triple, c15, […]): -5.575; Activity direction (Decrease / Inactive) [6]: Inactive; AC50 [7]: 2370 nM; AC50 ([8]; Hill fit, 50% of maximum activity response, read-out: AC50): 2820 nM; AC50 ([8]; log10 of molar AC50 from Hill fit, read-out: Log AC50 (converted)): 2820 nM
12 | O=c1[nH]c(N2CCOCC2)nc2c1CCN(Cc1ccc(Cl)cc1F)CC2 [NCGC00440653-01] | – | – | – | – | – | 2.16e-06 | log AC50, mean ([1]; fifth value triple, c15, […]): -5.475; Activity direction (Decrease / Inactive) [6]: Inactive; AC50 [7]: 3350 nM; Max Resp (signal direction of the dose response) ([8]; Decrease = decreasing P. berghei viability with dose, Increase = increasing signal, Inactive = no dose response): Inactive
13 | CCCN1C(CC(C)C)=N[S+](=O)([O-])c2cc([N+](=O)[O-])ccc21 [NCGC00510308-01] | 2.52e-09 | – | – | – | 1.59e-05 | – | –
14 | CCCN1C(CC(C)C)=N[S+](=O)([O-])c2cc(NC(=O)c3cnon3)ccc21 [NCGC00521034-01] | 1.59e-06 | – | – | – | 1e-05 | – | –
15 | CCCN1C(CC(C)C)=N[S+](=O)([O-])c2cc(NC(=O)c3cncs3)ccc21 [NCGC00521052-01] | – | 1.72e-06 | 4.84e-06 | 6.58e-07 | 5.86e-06 | – | –
16 | CC(C)CC1=N[S+](=O)([O-])c2cc(NC(=O)c3cccs3)ccc2N1C [NCGC00521057-01] | 1.89e-07 | 1e-06 | 1.85e-06 | 2.24e-07 | – | – | –
17 | CCCN1C(CC(C)C)=N[S+](=O)([O-])c2cc(NC(=O)COC)ccc21 [NCGC00521098-01] | – | 1.12e-05 | 8.93e-06 | 3.56e-06 | 1.68e-05 | – | –
18 | CCCN1C(CC(C)C)=N[S+](=O)([O-])c2cc(NC(=O)c3ccc(F)cc3)ccc21 [NCGC00521139-01] | – | 4.74e-07 | 5.22e-07 | 3.56e-07 | 5.64e-07 | – | –
19 | CCCN1C(CC(C)C)=N[S+](=O)([O-])c2cc(N)ccc21 [NCGC00521151-01] | 3.99e-06 | – | 2e-05 | 2e-06 | – | – | –
